System: small cuts and/or abrasions
Assay: topical application of epinephrine compositions to small cuts and/or abrasions
Assay type: in vivo
Settings: compositions containing from about 0.001 mg/ml to about 2.5 mg/ml, applied topically
[1] = compared with wounds untreated or treated with conventional methods

With `CNC[C@H](O)c1ccc(O)c(O)c1` [epinephrine] the “scab formation on treated skin areas” value (assessed visually) was “no scabs were formed visually”, the control of bleeding [1] was “faster control of bleeding” and the “healing of small cuts and/or abrasions” value [1] was “promoted healing of small cuts and/or abrasions”.

Reference: patent US8969331B2, “Treatment of skin and mucosal superficial wounds using adrenergic receptor agonists” (priority 2008, dated 2015)
